Where two headings read alike, the source gives them in different places.
Experiments:
Assay type in all cases: cell-based
[1] = target: protein kinases (human kinome) (Homo sapiens, UniProt Q9NSY1); details: BMP2K Q9NSY1
[2] = target: T1, protein kinases (human kinome) (Homo sapiens, UniProt Q9UBE8)
T1 sequence (Q9UBE8 1-527): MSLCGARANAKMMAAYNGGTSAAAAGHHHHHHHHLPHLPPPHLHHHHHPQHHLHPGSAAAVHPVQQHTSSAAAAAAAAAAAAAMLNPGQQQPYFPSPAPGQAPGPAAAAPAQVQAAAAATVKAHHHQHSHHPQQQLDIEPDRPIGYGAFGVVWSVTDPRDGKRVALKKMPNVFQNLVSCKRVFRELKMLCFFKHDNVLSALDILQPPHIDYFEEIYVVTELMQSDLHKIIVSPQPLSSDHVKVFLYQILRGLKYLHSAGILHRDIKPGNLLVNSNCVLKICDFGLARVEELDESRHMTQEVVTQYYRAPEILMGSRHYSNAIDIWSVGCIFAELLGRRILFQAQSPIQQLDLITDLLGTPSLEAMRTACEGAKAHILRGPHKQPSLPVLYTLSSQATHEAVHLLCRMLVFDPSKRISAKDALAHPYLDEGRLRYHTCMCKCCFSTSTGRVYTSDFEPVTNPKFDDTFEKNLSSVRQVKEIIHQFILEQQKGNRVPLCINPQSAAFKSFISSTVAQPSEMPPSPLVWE

[3] = target: protein kinases (human kinome) (Homo sapiens, UniProt Q15418); details: for logFC: RPS6KA1 (Q15418-1), direction down
[4] = target: T2, protein kinases (human kinome) (Homo sapiens, UniProt P29320)
T2 sequence (P29320 21-983): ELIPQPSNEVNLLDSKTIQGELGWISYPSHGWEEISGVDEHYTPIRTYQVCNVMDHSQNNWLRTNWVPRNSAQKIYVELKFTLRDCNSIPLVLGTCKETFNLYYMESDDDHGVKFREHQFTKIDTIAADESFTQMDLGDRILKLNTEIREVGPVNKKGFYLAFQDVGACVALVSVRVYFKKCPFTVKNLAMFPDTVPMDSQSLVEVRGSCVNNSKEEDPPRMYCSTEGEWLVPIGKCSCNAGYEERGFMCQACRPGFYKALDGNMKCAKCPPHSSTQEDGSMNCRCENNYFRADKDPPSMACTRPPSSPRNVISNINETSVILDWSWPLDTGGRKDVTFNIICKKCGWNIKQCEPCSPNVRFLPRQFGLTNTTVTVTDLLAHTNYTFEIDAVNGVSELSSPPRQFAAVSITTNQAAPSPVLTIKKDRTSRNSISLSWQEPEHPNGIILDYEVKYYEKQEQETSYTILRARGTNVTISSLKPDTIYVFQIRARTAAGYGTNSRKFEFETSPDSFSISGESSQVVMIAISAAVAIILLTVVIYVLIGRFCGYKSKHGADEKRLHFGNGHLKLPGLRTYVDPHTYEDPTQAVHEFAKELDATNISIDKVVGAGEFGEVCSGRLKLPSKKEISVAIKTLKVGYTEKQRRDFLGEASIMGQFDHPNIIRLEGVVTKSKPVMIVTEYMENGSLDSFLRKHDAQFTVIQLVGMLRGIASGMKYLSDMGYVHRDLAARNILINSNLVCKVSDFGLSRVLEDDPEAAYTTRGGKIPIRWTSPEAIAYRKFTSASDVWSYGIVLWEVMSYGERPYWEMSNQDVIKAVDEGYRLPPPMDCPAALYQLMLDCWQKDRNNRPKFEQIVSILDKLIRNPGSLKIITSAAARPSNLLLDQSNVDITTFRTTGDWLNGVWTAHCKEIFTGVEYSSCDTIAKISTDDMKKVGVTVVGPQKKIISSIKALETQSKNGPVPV

[5] = target: protein kinases (human kinome) (Homo sapiens, UniProt Q16659)
[6] = target: protein kinases (human kinome) (Homo sapiens, UniProt Q9BVS4); details: RIOK2 Q9BVS4
[7] = target: protein kinases (human kinome) (Homo sapiens, UniProt O94804); details: STK10 (O94804)
[8] = experiment wp103, direction down

Chain of protein kinases (human kinome) (Homo sapiens, UniProt Q9NSY1) (Q9NSY1 whole entry): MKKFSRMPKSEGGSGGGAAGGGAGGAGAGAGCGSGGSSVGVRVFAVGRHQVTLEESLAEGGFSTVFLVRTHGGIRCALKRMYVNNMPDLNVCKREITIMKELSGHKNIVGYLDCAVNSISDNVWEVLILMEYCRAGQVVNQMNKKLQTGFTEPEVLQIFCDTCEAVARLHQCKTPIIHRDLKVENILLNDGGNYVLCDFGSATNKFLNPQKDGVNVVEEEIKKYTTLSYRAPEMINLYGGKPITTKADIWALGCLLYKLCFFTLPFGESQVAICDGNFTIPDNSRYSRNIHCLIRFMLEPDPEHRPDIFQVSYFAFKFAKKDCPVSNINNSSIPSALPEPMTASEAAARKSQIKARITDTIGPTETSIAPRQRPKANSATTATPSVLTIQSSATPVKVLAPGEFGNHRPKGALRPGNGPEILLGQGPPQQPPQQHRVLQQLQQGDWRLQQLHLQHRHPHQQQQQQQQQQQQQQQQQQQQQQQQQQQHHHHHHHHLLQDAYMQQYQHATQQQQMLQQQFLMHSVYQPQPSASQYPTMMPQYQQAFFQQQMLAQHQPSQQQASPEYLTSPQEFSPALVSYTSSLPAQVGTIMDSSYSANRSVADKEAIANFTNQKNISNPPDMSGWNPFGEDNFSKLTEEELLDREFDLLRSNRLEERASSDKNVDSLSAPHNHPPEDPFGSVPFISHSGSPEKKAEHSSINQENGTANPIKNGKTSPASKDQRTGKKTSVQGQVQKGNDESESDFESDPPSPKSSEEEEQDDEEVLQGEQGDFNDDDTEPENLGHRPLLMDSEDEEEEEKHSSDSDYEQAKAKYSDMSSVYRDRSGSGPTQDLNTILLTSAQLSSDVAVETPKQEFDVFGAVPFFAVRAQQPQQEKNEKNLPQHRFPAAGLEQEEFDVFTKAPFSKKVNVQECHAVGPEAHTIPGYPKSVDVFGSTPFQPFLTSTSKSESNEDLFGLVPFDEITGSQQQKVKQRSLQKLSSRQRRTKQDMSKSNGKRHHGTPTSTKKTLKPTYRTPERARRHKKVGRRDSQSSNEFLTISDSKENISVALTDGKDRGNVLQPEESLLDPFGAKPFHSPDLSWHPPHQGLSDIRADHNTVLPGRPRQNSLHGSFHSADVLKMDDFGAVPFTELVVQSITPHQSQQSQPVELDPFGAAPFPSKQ
Chain of protein kinases (human kinome) (Homo sapiens, UniProt Q16659) (Q16659 whole entry): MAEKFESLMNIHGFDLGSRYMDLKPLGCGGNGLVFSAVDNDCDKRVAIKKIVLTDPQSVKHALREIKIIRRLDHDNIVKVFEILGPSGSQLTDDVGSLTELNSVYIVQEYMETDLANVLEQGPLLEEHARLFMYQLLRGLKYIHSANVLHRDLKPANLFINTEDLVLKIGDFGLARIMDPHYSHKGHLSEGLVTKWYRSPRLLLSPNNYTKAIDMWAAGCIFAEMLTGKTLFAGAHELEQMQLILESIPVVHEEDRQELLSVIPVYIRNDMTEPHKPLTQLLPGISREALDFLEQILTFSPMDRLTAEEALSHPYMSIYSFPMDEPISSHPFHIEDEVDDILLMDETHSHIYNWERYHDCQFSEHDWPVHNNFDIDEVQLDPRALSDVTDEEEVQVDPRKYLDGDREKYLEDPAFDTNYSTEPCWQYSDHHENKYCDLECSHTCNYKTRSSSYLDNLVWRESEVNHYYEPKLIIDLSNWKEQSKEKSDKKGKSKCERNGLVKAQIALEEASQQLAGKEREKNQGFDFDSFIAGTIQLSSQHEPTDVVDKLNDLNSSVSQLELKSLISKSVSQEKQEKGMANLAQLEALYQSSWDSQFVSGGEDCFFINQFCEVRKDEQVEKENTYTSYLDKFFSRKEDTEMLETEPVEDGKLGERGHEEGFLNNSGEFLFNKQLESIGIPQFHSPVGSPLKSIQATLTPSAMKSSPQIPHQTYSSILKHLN
Chain of protein kinases (human kinome) (Homo sapiens, UniProt Q15418) (Q15418 whole entry): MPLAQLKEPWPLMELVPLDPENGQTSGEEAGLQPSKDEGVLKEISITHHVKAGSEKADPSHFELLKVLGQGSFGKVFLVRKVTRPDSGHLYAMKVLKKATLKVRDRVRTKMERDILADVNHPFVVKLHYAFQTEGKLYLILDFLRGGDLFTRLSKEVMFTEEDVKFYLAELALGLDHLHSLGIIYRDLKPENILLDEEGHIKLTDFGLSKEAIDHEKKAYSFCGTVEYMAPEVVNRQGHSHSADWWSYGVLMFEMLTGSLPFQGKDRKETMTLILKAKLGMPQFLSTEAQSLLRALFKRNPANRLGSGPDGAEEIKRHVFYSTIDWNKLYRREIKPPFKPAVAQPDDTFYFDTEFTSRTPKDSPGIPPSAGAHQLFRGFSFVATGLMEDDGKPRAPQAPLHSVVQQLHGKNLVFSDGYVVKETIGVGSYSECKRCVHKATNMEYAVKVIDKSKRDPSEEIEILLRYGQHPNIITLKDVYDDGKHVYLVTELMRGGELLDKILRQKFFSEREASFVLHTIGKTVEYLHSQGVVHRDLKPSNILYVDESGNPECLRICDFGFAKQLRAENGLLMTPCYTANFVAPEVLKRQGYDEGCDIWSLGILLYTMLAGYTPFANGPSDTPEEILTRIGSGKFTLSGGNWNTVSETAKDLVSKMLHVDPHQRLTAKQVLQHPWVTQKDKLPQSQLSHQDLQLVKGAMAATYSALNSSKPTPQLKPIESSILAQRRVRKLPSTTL
Chain of protein kinases (human kinome) (Homo sapiens, UniProt Q9BVS4) (Q9BVS4 whole entry): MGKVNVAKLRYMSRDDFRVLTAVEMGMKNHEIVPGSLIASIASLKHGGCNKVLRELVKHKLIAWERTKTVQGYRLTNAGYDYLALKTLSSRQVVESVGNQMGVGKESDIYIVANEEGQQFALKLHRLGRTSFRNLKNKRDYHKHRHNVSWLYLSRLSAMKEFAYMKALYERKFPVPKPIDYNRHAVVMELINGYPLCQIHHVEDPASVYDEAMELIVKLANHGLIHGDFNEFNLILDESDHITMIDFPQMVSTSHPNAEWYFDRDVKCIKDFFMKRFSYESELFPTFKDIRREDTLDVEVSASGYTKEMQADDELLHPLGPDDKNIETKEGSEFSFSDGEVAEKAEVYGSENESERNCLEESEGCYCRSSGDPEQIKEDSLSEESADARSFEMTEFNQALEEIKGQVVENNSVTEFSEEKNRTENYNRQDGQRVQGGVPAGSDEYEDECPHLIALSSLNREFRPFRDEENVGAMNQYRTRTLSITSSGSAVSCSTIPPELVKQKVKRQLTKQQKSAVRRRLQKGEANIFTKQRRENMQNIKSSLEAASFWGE
Chain of protein kinases (human kinome) (Homo sapiens, UniProt O94804) (O94804 whole entry): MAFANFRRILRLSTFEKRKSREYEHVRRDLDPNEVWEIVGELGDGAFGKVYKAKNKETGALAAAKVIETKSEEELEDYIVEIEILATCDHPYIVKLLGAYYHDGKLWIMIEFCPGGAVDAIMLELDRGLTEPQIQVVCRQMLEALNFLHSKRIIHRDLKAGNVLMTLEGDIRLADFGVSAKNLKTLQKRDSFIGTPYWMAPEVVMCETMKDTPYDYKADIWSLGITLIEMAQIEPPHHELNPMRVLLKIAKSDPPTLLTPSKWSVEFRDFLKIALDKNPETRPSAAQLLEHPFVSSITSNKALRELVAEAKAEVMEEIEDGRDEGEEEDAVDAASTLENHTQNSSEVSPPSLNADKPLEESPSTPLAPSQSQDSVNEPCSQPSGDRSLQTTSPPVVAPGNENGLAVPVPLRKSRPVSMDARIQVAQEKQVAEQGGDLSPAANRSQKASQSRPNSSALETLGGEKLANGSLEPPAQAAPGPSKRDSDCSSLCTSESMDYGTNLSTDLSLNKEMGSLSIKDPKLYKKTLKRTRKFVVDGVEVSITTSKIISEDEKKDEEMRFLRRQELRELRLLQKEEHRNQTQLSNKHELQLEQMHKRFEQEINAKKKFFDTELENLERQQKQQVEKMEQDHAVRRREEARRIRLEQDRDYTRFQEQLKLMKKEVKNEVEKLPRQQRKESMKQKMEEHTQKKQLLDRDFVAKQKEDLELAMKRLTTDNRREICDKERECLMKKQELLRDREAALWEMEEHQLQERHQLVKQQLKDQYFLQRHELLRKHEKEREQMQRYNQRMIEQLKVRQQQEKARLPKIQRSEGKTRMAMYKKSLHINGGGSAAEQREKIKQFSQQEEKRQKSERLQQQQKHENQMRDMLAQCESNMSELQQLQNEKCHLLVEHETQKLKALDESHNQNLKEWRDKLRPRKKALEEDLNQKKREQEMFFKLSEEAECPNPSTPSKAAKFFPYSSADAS

O=C(COc1cccc2c1C(=O)N(C1CCC(=O)NC1=O)C2=O)NCCCCCCCN1CCc2cc(Nc3ncc(C4CC4)c(NCCCNC(=O)C4CCC4)n3)ccc2C1 (centres unmarked) [BSJ.04.178]
logFC ([1]; experiment wp134): −0.6929 | logFC BMP2K ([1]; experiment wp134): −0.6929

CS(=O)(=O)Nc1cccc(-c2csc3cnc(Nc4ccc(N5CCN(CCCCCOc6cccc7c6C(=O)N(C6CCC(=O)NC6=O)C7=O)CC5)cc4)nc23)c1 (centres unmarked) [DB0614, N-(3-(2-((4-(4-(5-((2-(2,6-Dioxopiperidin-3-yl)-1,3-dioxoisoindolin-4-yl)oxy)pentyl)piperazin-1-yl)phenyl)amino)thieno[3,2-d]pyrimidin-7-yl)phenyl)methanesulfonamide]
logFC ([1]; experiment wp045): −0.3909 | logFC BMP2K ([1]; experiment wp045): −0.3909

Cc1ccc(NC(=O)c2cccc(C(F)(F)F)c2)cc1N1Cc2cnc(Nc3ccc(N4CCN(CCCCC(=O)N[C@H](C(=O)N5C[C@H](O)C[C@H]5C(=O)N[C@@H](C)c5ccc(-c6scnc6C)cc5)C(C)(C)C)CC4)nc3)nc2N(C)C1=O [DB1113]
logFC ([2]; NLK (Q9UBE8), experiment wp168, direction down): −0.8556 | logFC ([2]; NLK Q9UBE8, experiment wp168): −0.8556 | logFC ([3]; experiment wp168): −0.7297 | logFC RPS6KA1 (Q15418-1) ([3]; experiment wp168): −0.7297 | logFC EPHA3 ([4]; Accession P29320, experiment wp168, direction down): −0.4182 | logFC EPHA3 ([4]; EPHA3 (P29320), experiment wp168): −0.4182

CC(C)(C)c1nc(-c2cccc(NS(=O)(=O)c3c(F)cccc3F)c2F)c(-c2ccnc(NCCOCCNC(=O)CCOCCOCCNc3cccc4c3C(=O)N(C3CCC(=O)NC3=O)C4=O)n2)s1 (centres unmarked) [DD.03.106]
logFC ([2]; NLK (Q9UBE8), experiment wp137, direction down): −0.441

C[C@@H]1C[C@@H](O)c2ncnc(N3CCN(C(=O)[C@H](CNCCCCCCCCCCc4cccc5c4C(=O)N(C4CCC(=O)NC4=O)C5=O)c4ccc(Cl)cc4)CC3)c21 (some centres unmarked) [INY.03.041.01]
logFC ([5]; MAPK6 (Q16659), experiment wp118): −0.6183 | logFC MAPKG ([5]; MAPKG Q16659, experiment wp118): −0.6183

Cc1cnc(Nc2ccc(N3CCN(CCOCCOCCNC(=O)COc4cccc5c4C(=O)N(C4CCC(=O)NC4=O)C5=O)CC3)cc2)nc1Nc1cccc(S(=O)(=O)NC(C)(C)C)c1 (centres unmarked) [JWG.118]
logFC ([1]; experiment wp071): −0.3528 | logFC BMP2K ([1]; experiment wp071): −0.3528

CCc1cnn2c(N(Cc3ccc(N)nc3)C(=O)CCOCCOCCOCCNC(=O)CNc3cccc4c3C(=O)N(C3CCC(=O)NC3=O)C4=O)cc(N3CCCC[C@H]3CCO)nc12 (some centres unmarked) [MFH.5.115.2]
logFC ([6]; experiment wp076): −0.8067 | logFC RIOK2 ([6]; experiment wp076): −0.8067

Cc1ncsc1-c1ccc([C@H](C)NC(=O)[C@@H]2C[C@@H](O)CN2C(=O)[C@@H](NC(=O)CCCCCN2CCN(c3ccc(Nc4ncc5scc(-c6cccc(NS(C)(=O)=O)c6)c5n4)cc3)CC2)C(C)(C)C)cc1 [RSS0680, (2S,4R)-1-((S)-3,3-Dimethyl-2-(6-(4-(4-((7-(3-(methylsulfonamido)phenyl)thieno[3,2-d]pyrimidin-2-yl)amino)phenyl)piperazin-1-yl)hexanamido)butanoyl)-4-hydroxy-N—((S)-1-(4-(4-methylthiazol-5yl)phenyl)ethyl)pyrrolidine-2-carboxamide]
logFC ([5]; MAPK6 Q16659, experiment wp080): −0.5033 | logFC MAPK6 ([5]; MAPK6 Q16659, experiment wp080): −0.5033

Cc1ccc(C(=O)Nc2ccc(CN3CCN(CCCOCCOCCOCCNC(=O)COc4cccc5c4C(=O)N(C4CCC(=O)NC4=O)C5=O)CC3)c(C(F)(F)F)c2)cc1C#Cc1cnc2cccnn12 (centres unmarked) [SB1.G.187]
logFC ([7]; experiment wp103): −0.3374 | logFC [7, 8]: −0.3374

Cn1c(=O)c(-c2c(Cl)cccc2Cl)cc2cnc(Nc3ccc(OCCNC(=O)CCCCCCNC(=O)COc4cccc5c4C(=O)N(C4CCC(=O)NC4=O)C5=O)cc3)nc21 (centres unmarked) [SB1.G.192.1]
logFC ([2]; NLK (Q9UBE8), experiment wp071, direction down): −0.5578 | logFC ([2]; NLK (Q9UBE8), experiment wp081, direction down): −0.4869 | logFC ([2]; NLK (Q9UBE8), experiment wp131, direction down): −0.5634 | logFC ([2]; NLK Q9UBE8, experiment wp071): −0.5578 | logFC ([2]; NLK Q9UBE8, experiment wp081): −0.4869 | logFC ([2]; NLK Q9UBE8, experiment wp131): −0.5634 | logFC EPHA3 ([4]; Accession P29320, experiment wp071, direction down): −1.175 | logFC EPHA3 ([4]; Accession P29320, experiment wp081, direction down): −1.027 | logFC EPHA3 ([4]; Accession P29320, experiment wp131, direction down): −1.318 | logFC EPHA3 ([4]; EPHA3 (P29320), experiment wp071): −1.175 | logFC EPHA3 ([4]; EPHA3 (P29320), experiment wp081): −1.027 | logFC EPHA3 ([4]; EPHA3 (P29320), experiment wp131): −1.318

CC(C)S(=O)(=O)c1ccccc1Nc1nc(Nc2ccc(N3CCN(CCOCCNC(=O)CNc4cccc5c4C(=O)N(C4CCC(=O)NC4=O)C5=O)CC3)cc2)ncc1Cl (centres unmarked) [SK.3.91]
logFC ([5]; MAPK6 (Q16659), experiment wp133, 2 hr): −0.8253 | logFC ([5]; MAPK6 (Q16659), experiment wp133, 2 hr, direction down): −0.8253 | logFC ([5]; MAPK6 (Q16659), experiment wp133, 4 hr): −1.614 | logFC ([5]; MAPK6 (Q16659), experiment wp133, 4 hr, direction down): −1.614 | logFC ([5]; MAPK6 Q16659, experiment wp103): −1.525 | logFC MAPK6 ([5]; MAPK6 Q16659, experiment wp103): −1.525 | logFC ([5]; MAPK6 Q16659, experiment wp107): −1.345 | logFC MAPK6 ([5]; MAPK6 Q16659, experiment wp107): −1.345 | logFC ([6]; experiment wp016, 1 uM): −0.6319 | logFC RIOK2 ([6]; experiment wp016, 1 uM): −0.6319 | logFC ([6]; experiment wp103): −0.8311 | logFC RIOK2 ([6]; experiment wp103): −0.8311 | logFC ([6]; experiment wp105): −0.482 | logFC RIOK2 ([6]; experiment wp105): −0.482 | logFC ([6]; experiment wp107): −0.7393 | logFC RIOK2 ([6]; experiment wp107): −0.7393 | logFC ([6]; experiment wp133, 4 hr): −0.6476 | logFC RIOK2 ([6]; experiment wp133, 4 hr): −0.6476 | logFC ([6]; experiment wp160, 4 hr): −0.4416 | logFC RIOK2 ([6]; experiment wp160, 4 hr): −0.4416 | logFC ([1]; experiment wp016): −0.4706 | logFC BMP2K ([1]; experiment wp016): −0.4706 | logFC ([1]; experiment wp105): −0.4043 | logFC BMP2K ([1]; experiment wp105): −0.4043 | logFC RPS6KA1 (Q15418-1) ([3]; Experiment wp172): −0.4561 | logFC ([3]; experiment wp107): −0.3671 | logFC ([3]; experiment wp160, 4 hr): −0.363 | logFC ([3]; experiment wp172): −0.4561 | logFC RPS6KA1 (Q15418-1) ([3]; experiment wp107): −0.3671 | logFC RPS6KA1 (Q15418-1) ([3]; experiment wp160, 4 hr): −0.363

CC(C)S(=O)(=O)c1ccccc1Nc1nc(Nc2ccc(N3CCN(CCOCCNC(=O)CNc4ccc5c(c4)C(=O)N(C4CCC(=O)NC4=O)C5=O)CC3)cc2)ncc1Cl (centres unmarked) [SK.3.93]
logFC ([1]; experiment wp016): −0.4575 | logFC BMP2K ([1]; experiment wp016): −0.4575

Nc1ncc(-c2ccc(S(=O)(=O)N(CCCNC(=O)CCOCCOCCOCCOCCOCCNc3cccc4c3C(=O)N(C3CCC(=O)NC3=O)C4=O)C3CC3)cc2)cc1-c1ccc2c(c1)CCNC2=O (centres unmarked) [WH.10417.099]
logFC ([7]; experiment wp056): −0.4923 | logFC ([7]; experiment wp056, direction down): −0.4923 | logFC ([7]; experiment wp103): −0.4751 | logFC [7, 8]: −0.4751 | logFC ([7]; experiment wp107): −0.5661 | logFC ([7]; experiment wp107, direction down): −0.5661

Source: patent publication US20240269139A1, “COMPOUNDS FOR TARGETED PROTEIN DEGRADATION OF KINASES” (DANA-FARBER CANCER INSTITUTE, INC., priority 2020, published 2024)
